How the values were obtained:
[1] = tested on: c-Myc (DNA, G4) TGAGGGTGGGTAGGGTGGGTAA; test: fluorescence lifetime displacement assay (TCSPC); conditions: 100 mM KCl (K+), 10 mM lithium cacodylate (Li+), pH 7.3, 2 µM DAOTA-M2 displaced, 4 µM c-Myc
[2] = tested on: ds26 (DNA, duplex) CAATCGGATCGAATTCGATCCGATTG; test: fluorescence lifetime (TCSPC); conditions: 100 mM KCl (K+), 10 mM lithium cacodylate (Li+) (buffer part); Xenopus egg extract 33 µL + 12 µL buffer; 2 µM DAOTA-M2, 44 µM ds26; 21 °C; lifetime 6.1 ns
[3] = tested on: c-Myc (DNA, G4) TGAGGGTGGGTAGGGTGGGTAA; test: fluorescence lifetime (TCSPC); conditions: 100 mM KCl (K+), 10 mM lithium cacodylate (Li+); pH 7.3; 2 µM DAOTA-M2, 4 µM c-Myc, 20 µM CT-DNA present; lifetime 6.1 to 11.7 ns

binding [1]	SMILES	further results
	N=C(N)c1ccc(-c2cc3ccc(C(=N)N)cc3[nH]2)cc1	binding ([1]; 20 µM CT-DNA present, small lifetime drop): no
	NCCOc1cc(C(=O)Nc2cc(OCCN)c3ccccc3n2)nc(C(=O)Nc2cc(OCCN)c3ccccc3n2)c1	binding ([1]; 20 µM CT-DNA present, PDS to 14.4 µM): yes
yes	[Cu+2].[O-]c1cc(OCCN2CCCCC2)ccc1/C=N/c1ccccc1/N=C/c1ccc(OCCN2CCCCC2)cc1[O-]	
yes	[Ni+2].[O-]c1cc(OCCN2CCCCC2)ccc1/C=N/c1ccccc1/N=C/c1ccc(OCCN2CCCCC2)cc1[O-]	
yes	[O-2].[O-]c1cc(OCCN2CCCCC2)ccc1/C=N/c1ccccc1/N=C/c1ccc(OCCN2CCCCC2)cc1[O-].[V+4]	
weak	[O-]c1cc(OCCN2CCCCC2)ccc1/C=N/c1ccccc1/N=C/c1ccc(OCCN2CCCCC2)cc1[O-].[Zn+2]	
	c1cc2oc3cccc4c3[c+]3c2c(c1)n(CCN1CCOCC1)c1cccc(c13)n4CCN1CCOCC1	binding [2]: yes; binding [3]: yes

Source: PMC7794231 (2021)
